According to PubChem BioAssay (NCI):
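A five-concentration, 48-hour dose response in 96-well plates underlies each endpoint, interpolated linearly between surrounding concentrations. TGI is the concentration that stops growth completely.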

How the values were obtained:
Test in all cases: inhibition of tumour cell growth, NCI panel, 48 h
SW-620 colon = system: SW-620 colon
ACHN renal = system: ACHN renal
MALME-3M melanoma = system: MALME-3M melanoma
SF-295 CNS = system: SF-295 CNS
PC-3 prostate = system: PC-3 prostate
SN12C renal = system: SN12C renal
HOP-62 NSCLC = system: HOP-62 NSCLC
UACC-257 melanoma = system: UACC-257 melanoma
LOX IMVI melanoma = system: LOX IMVI melanoma
NCI-H460 lung = system: NCI-H460 lung

Row | SMILES | TGI (SW-620 colon) [µM] | TGI (ACHN renal) [µM] | TGI (MALME-3M melanoma) [µM] | TGI (SF-295 CNS) [µM] | TGI (PC-3 prostate) [µM] | TGI (SN12C renal) [µM] | TGI (HOP-62 NSCLC) [µM] | TGI (UACC-257 melanoma) [µM] | TGI (LOX IMVI melanoma) [µM] | TGI (NCI-H460 lung) [µM]
1 | Cn1c(=O)c(C(=O)Nc2nc(C34CC5CC(CC(C5)C3)C4)cs2)c(O)c2ccccc21 | > 100 | > 100 | > 100 | > 100 | > 100 | > 100 | 36.2 | > 100 | > 100 | > 100
2 | NC(N)=N/N=C/c1nc2n(c1[N+](=O)[O-])CCS2 | > 100 | > 100 | 30.8 | 98.4 | > 100 | > 100 | > 100 | 44.6 | 92.6 | 48.4
3 | COC(=O)C1=C(C(=O)OC)C(C(=O)c2ccc(Br)cc2)N2N=C(c3ccc(Cl)cc3)C=CC12 (stereo not given) | > 100 | > 100 | > 100 | > 100 | > 100 | > 100 | > 100 | > 100 | > 100 | > 100
4 | COC(=O)C(Cc1c(C2Nc3ccccc3C2CC(NC(=O)CNC(C)=O)C(=O)OC)[nH]c2ccccc12)NC(=O)CNC(C)=O (stereo not given) | > 100 | > 100 | > 100 | > 100 | > 100 | > 100 | > 69.8 | > 100 | > 100 | > 100
5 | COc1ccc2nc3ccc(OC)cc3c(SCCO)c2c1 | > 100 | > 100 | > 96.2 | > 100 | > 100 | > 100 | > 100 | > 100 | > 63 | > 100
